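Assay format: 96-well plates, 48-hour exposure. TGI: total growth inhibition.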 The source made the active and inactive calls. No stated cut-off is given here; in the data, active means GI50 below about 0.43 µM; inactive means the rest.
Tests used:
Assay in all cases: growth of human tumour cells (NCI), 48 h
[1] = tested on: LOX IMVI melanoma
[2] = tested on: OVCAR-4 ovarian
[3] = tested on: SNB-19 CNS
[4] = tested on: A549 NSCLC
[5] = tested on: PC-3 prostate
[6] = tested on: MDA-MB-435
[7] = tested on: HCT-15 colon
[8] = tested on: HCT-116 colon
[9] = tested on: SK-MEL-5 melanoma
[10] = tested on: EKVX NSCLC
[11] = tested on: NCI-H522 lung
[12] = tested on: SN12C renal
[13] = tested on: IGROV1 ovarian
[14] = tested on: MCF7 breast
[15] = tested on: OVCAR-3 ovarian
[16] = tested on: A498 renal
[17] = tested on: SR leukemia
[18] = tested on: HT29 colon
[19] = tested on: SF-295 CNS
[20] = tested on: BT-549 breast
[21] = tested on: U251 CNS
[22] = tested on: HOP-92 NSCLC
[23] = tested on: OVCAR-5 ovarian
[24] = tested on: MOLT-4 leukemia
[25] = tested on: OVCAR-8 ovarian
[26] = tested on: K-562 leukemia
[27] = tested on: SK-MEL-28 melanoma
[28] = tested on: HCC-2998 colon
[29] = tested on: SNB-75 CNS
[30] = tested on: NCI/ADR-RES ovarian
[31] = tested on: UACC-257 melanoma
[32] = tested on: MDA-MB-231 breast
[33] = tested on: NCI-H226 lung
[34] = tested on: HOP-62 NSCLC
[35] = tested on: CCRF-CEM leukemia
[36] = tested on: 786-0 renal
[37] = tested on: SW-620 colon
[38] = tested on: ACHN renal
[39] = tested on: RPMI-8226 leukemia
[40] = tested on: UO-31 renal
[41] = tested on: TK-10 renal
[42] = tested on: HS 578T breast
[43] = tested on: KM12 colon
[44] = tested on: SK-MEL-2 melanoma
[45] = tested on: COLO 205 colon
[46] = tested on: NCI-H460 lung
[47] = tested on: T-47D breast
[48] = tested on: MDA-N
[49] = tested on: MALME-3M melanoma
[50] = tested on: HL-60(TB) leukemia
[51] = tested on: UACC-62 melanoma
[52] = tested on: SF-539 CNS
[53] = tested on: CAKI-1 renal
[54] = tested on: DU-145 prostate
[55] = tested on: M14 melanoma
[56] = tested on: SK-OV-3 ovarian
[57] = tested on: SF-268 CNS
[58] = tested on: NCI-H23 lung

O=C(O)CCN1CCN(CCC(=O)O)CCN(CCC(=O)O)CC1
TGI [1]: > 100 µM | TGI [2]: > 100 µM | TGI [3]: > 100 µM | TGI [4]: > 100 µM | TGI [5]: > 100 µM | TGI [6]: > 100 µM | TGI [7]: > 100 µM | TGI [8]: > 100 µM | TGI [9]: > 100 µM | TGI [10]: > 100 µM | TGI [11]: > 100 µM | TGI [12]: > 100 µM | TGI [13]: > 100 µM | TGI [14]: > 100 µM | TGI [15]: > 100 µM | TGI [16]: > 100 µM | TGI [17]: > 100 µM | TGI [18]: > 100 µM | TGI [19]: > 100 µM | TGI [20]: > 100 µM | TGI [21]: > 100 µM | TGI [22]: > 100 µM | TGI [23]: > 100 µM | TGI [24]: > 100 µM | TGI [25]: > 100 µM | TGI [26]: > 100 µM | TGI [27]: > 100 µM | TGI [28]: > 100 µM | TGI [29]: > 100 µM | TGI [30]: > 100 µM | TGI [31]: > 100 µM | TGI [32]: > 100 µM | TGI [33]: > 100 µM | TGI [34]: > 100 µM | TGI [35]: > 100 µM | TGI [36]: > 100 µM | TGI [37]: > 100 µM | TGI [38]: > 100 µM | TGI [39]: > 100 µM | TGI [40]: > 100 µM | TGI [41]: > 100 µM | TGI [42]: > 100 µM | TGI [43]: > 100 µM | TGI [44]: > 100 µM | TGI [45]: > 100 µM | TGI [46]: > 100 µM | TGI [47]: > 100 µM | TGI [48]: > 100 µM | TGI [49]: > 100 µM | TGI [50]: 89.3 µM | TGI [51]: > 100 µM | TGI [52]: > 100 µM | TGI [53]: > 100 µM | TGI [54]: > 100 µM | TGI [55]: > 100 µM | TGI [56]: > 100 µM

O=c1cc(-c2ccc(O)c(O)c2-c2c(O)cc(O)c3c(=O)cc(-c4ccc(O)c(O)c4)oc23)oc2cc(O)cc(O)c12
outcome [1]: inactive | outcome [2]: inactive | outcome [3]: inactive | outcome [4]: inactive | outcome [5]: inactive | outcome [6]: inactive | outcome [7]: inactive | outcome [8]: inactive | outcome [9]: inactive | outcome [10]: inactive | outcome [11]: inactive | outcome [12]: inactive | outcome [13]: inactive | outcome [14]: inactive | outcome [15]: inactive | outcome [16]: inactive | outcome [17]: inactive | outcome [18]: inactive | outcome [19]: inactive | outcome [20]: inactive | outcome [21]: inactive | outcome [57]: inactive | outcome [22]: inactive | outcome [23]: inactive | outcome [58]: inactive | outcome [24]: inactive | outcome [25]: inactive | outcome [26]: inactive | outcome [27]: inactive | outcome [28]: inactive | outcome [29]: inactive | outcome [30]: inactive | outcome [31]: inactive | outcome [32]: inactive | outcome [33]: inactive | outcome [34]: inactive | outcome [35]: inactive | outcome [36]: inactive | outcome [37]: inactive | outcome [38]: inactive | outcome [39]: inactive | outcome [40]: inactive | outcome [41]: inactive | outcome [42]: inactive | outcome [43]: inactive | outcome [44]: inactive | outcome [45]: inactive | outcome [47]: inactive | outcome [48]: inactive | outcome [49]: inactive | outcome [50]: inactive | outcome [51]: inactive | outcome [52]: inactive | outcome [53]: inactive | outcome [54]: inactive | outcome [55]: inactive | outcome [56]: inactive

COC(=O)c1cc2/c(=N/O)c3ccccc3sc2o1
TGI [1]: > 100 µM | TGI [2]: > 100 µM | TGI [3]: > 100 µM | TGI [4]: > 100 µM | TGI [5]: > 100 µM | TGI [6]: > 100 µM | TGI [7]: > 100 µM | TGI [8]: > 100 µM | TGI [9]: > 100 µM | TGI [10]: > 100 µM | TGI [11]: > 100 µM | TGI [12]: > 100 µM | TGI [13]: > 100 µM | TGI [14]: > 100 µM | TGI [15]: > 100 µM | TGI [16]: > 100 µM | TGI [17]: > 100 µM | TGI [18]: > 100 µM | TGI [19]: > 100 µM | TGI [20]: > 100 µM | TGI [21]: > 100 µM | TGI [57]: > 100 µM | TGI [22]: > 100 µM | TGI [23]: > 100 µM | TGI [58]: > 100 µM | TGI [24]: > 100 µM | TGI [25]: > 100 µM | TGI [26]: > 100 µM | TGI [27]: > 100 µM | TGI [28]: > 100 µM | TGI [29]: > 100 µM | TGI [30]: > 100 µM | TGI [31]: > 100 µM | TGI [32]: > 100 µM | TGI [33]: > 100 µM | TGI [34]: > 100 µM | TGI [35]: > 100 µM | TGI [36]: > 100 µM | TGI [37]: > 100 µM | TGI [38]: > 100 µM | TGI [39]: > 100 µM | TGI [41]: > 100 µM | TGI [42]: > 100 µM | TGI [43]: > 100 µM | TGI [44]: > 100 µM | TGI [45]: > 100 µM | TGI [46]: > 100 µM | TGI [47]: > 100 µM | TGI [48]: > 100 µM | TGI [49]: > 100 µM | TGI [50]: > 100 µM | TGI [51]: > 100 µM | TGI [52]: > 100 µM | TGI [53]: > 100 µM | TGI [54]: > 100 µM | TGI [55]: > 100 µM | TGI [56]: > 100 µM

Source: PubChem BioAssay (NCI)
